Results reported in article PMC10570460 (Frontiers in Cell and Developmental Biology, 2023).
pKd: −log10 of the molar value.

Target: T1, PKA regulatory subunit R1Alpha (R1A) (Rattus norvegicus, UniProt P09456)
T1 construct: gene Prkar1a; endogenous detergent-insoluble R1A clusters in P30 rat CA1 brain sections
Assay: saturation equilibrium binding in fixed brain sections, confocal fluorescence microscopy

T1 sequence (P09456 2-381): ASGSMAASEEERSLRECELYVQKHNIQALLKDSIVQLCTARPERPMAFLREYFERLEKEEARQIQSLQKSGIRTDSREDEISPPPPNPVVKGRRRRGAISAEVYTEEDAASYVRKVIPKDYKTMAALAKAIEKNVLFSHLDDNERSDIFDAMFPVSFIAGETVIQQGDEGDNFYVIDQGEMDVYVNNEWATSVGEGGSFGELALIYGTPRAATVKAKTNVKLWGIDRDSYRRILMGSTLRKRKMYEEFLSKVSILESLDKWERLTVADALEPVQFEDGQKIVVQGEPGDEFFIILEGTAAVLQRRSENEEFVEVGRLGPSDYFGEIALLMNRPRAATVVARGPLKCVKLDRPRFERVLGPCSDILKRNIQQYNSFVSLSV

pKd: 7.63
Compound: Nc1ncnc2c1nc(SCC(=O)Nc1ccc3c(c1)C(=O)OC31c3ccc(O)cc3Oc3cc(O)ccc31)n2[C@@H]1O[C@@H]2COP(=O)(O)O[C@H]2[C@H]1O [SAF-cAMP, 8-(5-thioacetamidofluorescein)-adenosine 3′,5′-cyclic monophosphate]
